Source: PubChem BioAssay (NCI)
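The compound was tested at five concentrations on cells cultured in 96-well plates, with a 48-hour exposure period. TGI: concentration producing complete growth inhibition.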

Columns and labels:
Experiment in all cases: DTP human tumour cell line panel, 48 h
[1] = system: MDA-MB-231 breast
[2] = system: ACHN renal
[3] = system: NCI-H23 lung
[4] = system: UO-31 renal
[5] = system: HCC-2998 colon
[6] = system: SN12C renal
[7] = system: SNB-75 CNS
[8] = system: SK-MEL-28 melanoma
[9] = system: 786-0 renal
[10] = system: SW-620 colon
[11] = system: HCT-15 colon
[12] = system: K-562 leukemia
[13] = system: A498 renal
[14] = system: SR leukemia
[15] = system: T-47D breast
[16] = system: COLO 205 colon
[17] = system: SNB-19 CNS
[18] = system: NCI-H226 lung
[19] = system: MCF7 breast
[20] = system: MOLT-4 leukemia
[21] = system: UACC-62 melanoma
[22] = system: HCT-116 colon
[23] = system: UACC-257 melanoma
[24] = system: SK-MEL-5 melanoma
[25] = system: DU-145 prostate
[26] = system: A549 NSCLC
[27] = system: SF-268 CNS
[28] = system: OVCAR-8 ovarian
[29] = system: SF-539 CNS
[30] = system: OVCAR-4 ovarian
[31] = system: MDA-MB-435
[32] = system: RPMI-8226 leukemia
[33] = system: HT29 colon
[34] = system: SK-MEL-2 melanoma
[35] = system: OVCAR-3 ovarian
[36] = system: M14 melanoma
[37] = system: NCI-H460 lung
[38] = system: HOP-92 NSCLC
[39] = system: IGROV1 ovarian
[40] = system: NCI/ADR-RES ovarian
[41] = system: HL-60(TB) leukemia
[42] = system: LOX IMVI melanoma
[43] = system: SK-OV-3 ovarian
[44] = system: CCRF-CEM leukemia
[45] = system: RXF 393 renal
[46] = system: U251 CNS
[47] = system: SF-295 CNS
[48] = system: KM12 colon
[49] = system: HS 578T breast
[50] = system: EKVX NSCLC
[51] = system: MDA-N
[52] = system: HOP-62 NSCLC
[53] = system: PC-3 prostate
[54] = system: TK-10 renal
[55] = system: CAKI-1 renal
[56] = system: NCI-H522 lung
[57] = system: MALME-3M melanoma
[58] = system: BT-549 breast
[59] = system: OVCAR-5 ovarian

Measured: TGI

CCOC(CN(C)C(=S)Nc1cccc2ccccc12)OCC
> 10 µM: [1] | [2] | [3] | [4] | [5] | [6] | [7] | [8] | [9] | [10] | [11] | [12] | [13] | [14] | [15] | [16] | [17] | [18] | [19] | [20] | [21] | [22] | [23] | [24] | [25] | [26] | [27] | [28] | [29] | [30] | [31] | [32] | [33] | [34] | [35] | [36] | [37] | [38] | [39] | [40] | [41] | [42] | [43] | [44] | [45] | [46] | [47] | [48] | [49] | [50] | [51] | [52] | [53] | [54] | [55] | [56] | [57]

CN(C)P(=O)(Oc1occc1C(O)Cc1ccccc1)N(C)C (stereo not drawn)
> 100 µM: [1] | [2] | [3] | [4] | [5] | [6] | [7] | [8] | [9] | [10] | [11] | [13] | [15] | [16] | [17] | [18] | [19] | [22] | [23] | [24] | [26] | [27] | [28] | [29] | [30] | [31] | [32] | [34] | [35] | [36] | [37] | [40] | [42] | [43] | [44] | [45] | [46] | [47] | [48] | [50] | [51] | [52] | [58] | [53] | [54] | [55] | [56] | [57] | [59]

CC1(C)[C@@H](Cn2cnc3c(Cl)nc(N)nc32)CC[C@@]1(C)CO
35.1 µM: [34]
64.2 µM: [31]
> 100 µM: [1] | [2] | [6] | [7] | [8] | [9] | [10] | [11] | [12] | [13] | [15] | [16] | [17] | [19] | [22] | [25] | [26] | [29] | [30] | [35] | [36] | [38] | [40] | [43] | [44] | [45] | [46] | [47] | [48] | [50] | [52] | [53] | [54] | [55] | [59]
79.2 µM: [23]
91.7 µM: [18] | [51]
15 µM: [4]
47.3 µM: [24]
44.9 µM: [49]
89.2 µM: [32]
48.7 µM: [5]
43.3 µM: [27]
38 µM: [21]
80.9 µM: [42]

CC(C)C1=C2CCC3(C)C(CCC4C5C6OCC5(CCC6(C)C)CCC43C)C2(C)CC1 (stereo not drawn)
39.2 µM: [50]
37 µM: [33] | [46]
35.2 µM: [48]
40.8 µM: [38]
32.9 µM: [29]
34.6 µM: [20]
77.5 µM: [30]
52.2 µM: [58]
31.9 µM: [44]
38.3 µM: [55]
51 µM: [35]
28.7 µM: [42]
31.8 µM: [37]
42.9 µM: [32]
38.9 µM: [52]
> 100 µM: [18] | [43] | [59]
51.3 µM: [49]
37.3 µM: [1] | [16]
48.8 µM: [45]
29.2 µM: [39]
63 µM: [15]
38.6 µM: [57]
41.3 µM: [21]
36.6 µM: [31]
32.8 µM: [8]
39.6 µM: [40]
34.5 µM: [47]
40.7 µM: [11]
27.9 µM: [41]
54.5 µM: [3]
33.8 µM: [4]
98.6 µM: [17]
81.7 µM: [34]
33.7 µM: [5] | [9]
36.7 µM: [13]
37.5 µM: [25]
36.5 µM: [56]
30.6 µM: [14]
50.2 µM: [24]
50.8 µM: [10]
41.6 µM: [36]
43.8 µM: [26]
36.1 µM: [23]
29.9 µM: [6]
69.9 µM: [27]
47.7 µM: [19]
30.2 µM: [51]
34.4 µM: [22] | [28]
35.9 µM: [2]
31 µM: [54]

CC(O)CC(O)(C(F)(F)F)C(F)(F)F (stereo not drawn)
> 10 µM: [1] | [2] | [3] | [4] | [5] | [6] | [7] | [8] | [9] | [10] | [11] | [12] | [13] | [14] | [15] | [16] | [17] | [18] | [19] | [20] | [21] | [22] | [23] | [24] | [25] | [26] | [27] | [28] | [29] | [30] | [31] | [32] | [33] | [34] | [35] | [36] | [37] | [39] | [40] | [41] | [42] | [43] | [44] | [45] | [46] | [47] | [48] | [49] | [50] | [51] | [52] | [53] | [54] | [55] | [56] | [57]

COCOc1ccc(C2(O)Oc3cc(OCOC)ccc3C2C)c(O)c1 (stereo not drawn)
25.8 µM: [15] | [25]
32 µM: [28] | [52]
30.4 µM: [7] | [36] | [55]
32.2 µM: [16] | [33]
34.6 µM: [42]
26.7 µM: [2]
32.7 µM: [34]
31 µM: [8]
29 µM: [47]
30.5 µM: [38]
53.7 µM: [44]
> 100 µM: [32]
26.2 µM: [35]
32.4 µM: [10]
25.5 µM: [21]
31.9 µM: [26]
23.9 µM: [3]
75.1 µM: [14]
28.1 µM: [31]
31.8 µM: [43]
23.8 µM: [4]
27.6 µM: [22]
26.6 µM: [5]
30.9 µM: [40]
26.3 µM: [53]
27.1 µM: [37]
32.1 µM: [30]
31.3 µM: [59]
32.5 µM: [54]
23 µM: [24]
29.1 µM: [29]
31.1 µM: [45]
28.8 µM: [13]
32.8 µM: [56]
30 µM: [6] | [27]
28.7 µM: [51] | [57]
44.7 µM: [12]
60.8 µM: [20]
29.4 µM: [17]
24.5 µM: [23]
44 µM: [41]
27.9 µM: [19]
31.6 µM: [9] | [39]
31.2 µM: [18]
28.2 µM: [46] | [50] | [58]
31.7 µM: [48]
25.3 µM: [1]
22.3 µM: [11]

O=C(OCC(OC(=O)c1ccccc1)C(OC(=O)c1ccccc1)C(OC(=O)c1ccccc1)c1cnn(-c2ccccc2)n1)c1ccccc1 (stereo not drawn)
> 100 µM: [2] | [3] | [4] | [5] | [6] | [8] | [9] | [10] | [11] | [12] | [13] | [14] | [15] | [16] | [17] | [18] | [19] | [20] | [21] | [22] | [23] | [24] | [25] | [26] | [27] | [28] | [29] | [30] | [31] | [32] | [33] | [35] | [36] | [37] | [38] | [39] | [40] | [41] | [42] | [43] | [44] | [45] | [47] | [48] | [49] | [50] | [51] | [52] | [58] | [54] | [55] | [56] | [57] | [59]
